Experimental data from patent publication US9687458B2, “Trans-clomiphene for use in cancer therapy” (REPROS THERAPEUTICS INC., priority 2012, dated 2017).

Tests used:
circulating IGF-1 = settings: Campbell et al., J. Clin. Pathol: Mol Pathol. 54:307 (2001); cited from earlier work
serum IGF-1 [1] = assay: Third clinical study: IGF-1 after 6 weeks of trans-clomiphene compared to AndroGel; format: in vivo, human
[2] = tested on: corticotropin, prolactin or thyroid stimulating hormone; assay: Studies on the effects of enclomiphine on men: other hormones secreted by the pituitary; format: in vivo, human
From the text: The present invention provides methods for reducing IGF-1 levels in a subject in need of such treatment. […] Clomiphene is thought to exert its effects at the level of the hypothamus-pituitary axis by specifically stimulating secretion of the gonadotropic hormones LH and FSH. Neither of these gonadotropic hormones is known to play a general role in establishment or proliferation of cancer. Studies on the effects of enclomiphine on men found no changes in other hormones secreted by the pituitary such as corticotropin, prolactin or thyroid stimulating hormone. Growth hormone (GH), secreted by the pituitary is known to drive production of IGF-1 by the liver. Without wishing to be bound by theory it is believed that trans-clomiphene suppresses the pituitary production of GH thereby reducing the endocrine stimulated production of liver IGF-1. The activity of trans-clomiphene in reducing serum IGF-1 levels, renders the compositions useful for treating a variety of cancers having strong expression or overexpression of IGF-1 as a common underlying etiology.

[3] = tested on: serum (circulating) IGF-1; assay: First clinical study: serum IGF-1 by immunoenzymometric assay, trans-clomiphene vs Testim over six months; format: in vivo, human
Procedure: The effect of the isolated trans-clomiphene isomer on free serum IGF-1 was tested in three separate clinical studies.
Adult male subjects with a morning total testosterone blood level of <300 ng/dl and a serum LH of <15 IU/ml who had previously undergone between 6 months and two years of topical testosterone therapy were administered either trans-clomiphene (25 mg/day via oral capsule) or a topical testosterone gel (Testim®, 50 mg applied daily) over a six month period according to the first study. Following an initial screening visit (Visit 1-V1), topical testosterone replacement therapy in the subjects was discontinued for either three weeks or three months. At the end of the washout period (Visit 2-V2), quantitative determination of baseline serum (circulating) IGF-1 measurements were made in the subjects by immunoenzymometric assay (Immunodiagnostics Systems Ltd., OCTEIA® IGF-1 kit) and treatment with either trans-clomiphene or Testim® was initiated. Follow-up measurements were taken at 3 months post initial dose (Visit 4-V4), 6 months post initial dose (Visit 5-V5) and one month after cessation of treatment (Visit 6-V6). Seven subjects completed six months of trans-clomiphene therapy and five subjects completed six months of Testim® therapy. The results are presented at FIG. 1. At baseline (V2), serum IGF-1 levels in both patient groups averaged about 140 ng/ml. […] Thus, circulating serum IGF-1 levels were reduced over 40% in subjects administered trans-clomiphene whereas exogenous testosterone had no effect on circulating serum IGF-1. Importantly, aside from low testosterone, these subjects were otherwise healthy—thus, administering trans-clomiphene provides an effective method for reducing serum levels of IGF-1 produced by the liver (i.e. growth-hormone dependent IGF-1).

serum IGF-1 [4] = assay: Second clinical study: serum IGF-1 after three months of trans-clomiphene or placebo; format: in vivo, human; settings: for Mean Change from Baseline (st dev): P<0.0001 vs placebo; for mean reduction in serum IGF-1 levels: three months
Procedure: Another study measured serum IGF-1 levels in human males with low/low-normal testosterone following treatment with trans-clomiphene. Briefly 38 males were administered trans-clomiphene at 12.5 mg per day, 35 males were administered trans-clomiphene at 25 mg per day and 43 males were administered a placebo (control group). Serum IGF-1 levels were measured by immunoenzymometric assay as described above at baseline and following three months of treatment with trans-clomiphene or placebo for each treatment group.

human estrogen receptor = target: T1, human estrogen receptor (Homo sapiens, UniProt P03372); settings: Murdter et al., Hum. Mol. Genet. 21:1145 (2012); cited from earlier work
T1 sequence (P03372 1-595): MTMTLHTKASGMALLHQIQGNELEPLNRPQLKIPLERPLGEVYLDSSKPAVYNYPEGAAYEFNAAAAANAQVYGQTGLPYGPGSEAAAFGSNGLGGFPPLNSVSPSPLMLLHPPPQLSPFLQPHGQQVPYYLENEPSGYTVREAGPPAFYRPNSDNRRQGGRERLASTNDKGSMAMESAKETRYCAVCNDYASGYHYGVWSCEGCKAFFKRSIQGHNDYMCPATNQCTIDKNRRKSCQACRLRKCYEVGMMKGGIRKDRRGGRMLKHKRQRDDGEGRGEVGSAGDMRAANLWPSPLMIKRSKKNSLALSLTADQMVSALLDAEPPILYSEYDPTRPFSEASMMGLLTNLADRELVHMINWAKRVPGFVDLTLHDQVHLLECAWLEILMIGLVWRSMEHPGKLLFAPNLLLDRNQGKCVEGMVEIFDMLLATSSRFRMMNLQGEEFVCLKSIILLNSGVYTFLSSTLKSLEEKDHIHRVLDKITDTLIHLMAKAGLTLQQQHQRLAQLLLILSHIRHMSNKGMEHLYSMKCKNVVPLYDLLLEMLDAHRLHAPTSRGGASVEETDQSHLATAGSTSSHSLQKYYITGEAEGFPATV

## CCC(=C(c1ccccc1)c1ccc(OCCN(C)C)cc1)c1ccccc1 [tamoxifen, 2-[4-(1,2-diphenylbut-1-enyl)phenoxy]-N,N-dimethyl-ethanamine]
Circulating IGF-1
  change to circulating IGF-1 levels after treatment: no change

## CCN(CC)CCOc1ccc(/C(=C(/Cl)c2ccccc2)c2ccccc2)cc1 [trans-clomiphene]
Serum IGF-1 [1]; 6.25 mg daily group, n=12, baseline
  IGF-1 - Naïve men: 101 ± 43 µg/L
Serum IGF-1 [1]; 6.25 mg daily, n=12, after 6 weeks, p = 0.008 compared to AndroGel (MWW)
  IGF-1 - Treated men: 54 ± 30 µg/L
Serum IGF-1 [1]; 12.5 mg daily group, n=10, baseline
  IGF-1 - Naïve men: 94 ± 47 µg/L
Serum IGF-1 [1]; 12.5 mg daily, n=10, after 6 weeks, p = 0.0035 compared to AndroGel (MWW)
  IGF-1 - Treated men: 50 ± 24 µg/L
Serum IGF-1 [1]; 25 mg daily group, n=12, baseline
  IGF-1 - Naïve men: 96 ± 45 µg/L
Serum IGF-1 [1]; 25 mg daily, n=12, after 6 weeks, p = 0.008 compared to AndroGel (MWW)
  IGF-1 - Treated men: 62 ± 42 µg/L
[2]
  changes in other hormones secreted by the pituitary (corticotropin, prolactin, thyroid stimulating hormone): no changes
[3]; group average at end of washout, before treatment, hypogonadal adult males
  serum IGF-1 level at baseline (V2): about 140 ng/ml
[3]; trans-clomiphene 25 mg/day oral capsule, n=7
  serum IGF-1 level after 3 months of treatment (V4): below 80 ng/ml
[3]; trans-clomiphene 25 mg/day oral or Testim 50 mg daily topical
  serum IGF-1 after 6 months of treatment (V5): remained depressed
[3]; trans-clomiphene 25 mg/day, vs baseline
  reduction of circulating serum IGF-1: over 40%
Serum IGF-1 [4]; 12.5 mg per day group, n=38, before treatment
  Baseline IGF-1 (st dev): 115.2 (35.11) μg/L
Serum IGF-1 [4]; 12.5 mg per day, n=38, month 3
  Mean Change from Baseline (st dev): −36.8 (22.3) μg/L
Serum IGF-1 [4]; 12.5 mg per day, n=38, three months of treatment
  Month 3 IGF-1 (st dev): 77.3 (30.8) μg/L
Serum IGF-1 [4]; 12.5 mg per day
  mean reduction in serum IGF-1 levels: ~32%
Serum IGF-1 [4]; 25 mg per day group, n=35, before treatment
  Baseline IGF-1 (st dev): 107.2 (39.4) μg/L
Serum IGF-1 [4]; 25 mg per day, n=35, month 3
  Mean Change from Baseline (st dev): −38.3 (29.5) μg/L
Serum IGF-1 [4]; 25 mg per day, n=35, three months of treatment
  Month 3 IGF-1 (st dev): 70.4 (38.6) μg/L
Serum IGF-1 [4]; 25 mg per day
  mean reduction in serum IGF-1 levels: 36%

## CCN(CC)CCOc1ccc(C(=C(Cl)c2ccccc2)c2ccc(O)cc2)cc1 [4-hydroxy-trans-clomiphene]
Human estrogen receptor
  ligand strength for the human estrogen receptor: strong ligands
